Source: patent US20160000750A1, “COMBINATION OF EGCG OR METHYLATED EGCG AND A PDE INHIBITOR” (KYUSHU UNIVERSITY, NATIONAL UNIVERSITY CORPORATION, priority 2010, published 2016)

Tests used:
[1] = tested on: human acute myeloid leukemia cell line, HL60; assay: Trypan blue cell viability and viable cell count, HL60; type: cell-based; details: vardenafil 5 μM, EGCG 5 μM added after 3 hours, 96 hours
Protocol: A human multiple myeloma cell line, U266, was subcultured in an RPMI 1640 medium (NISSUI PHARMACEUTICAL Co. LTD., Tokyo) supplemented with 10% fetal calf serum (FCS) (BIOLOGICAL INDUSTRIES) at 37° C. under vapor-saturated 5% CO2 conditions. The cells were cultured in the logarithmic growth phase. A human acute myeloid leukemia cell line, HL60, was subcultured in an RPMI 1640 medium supplemented with 10% fetal calf serum (FCS) at 37° C. under vapor-saturated 5% CO2 conditions. The cells were cultured in the logarithmic growth phase. […]
The plate was returned to the incubator immediately after the addition of EGCG, followed by culturing for 96 hours. […] After 10 minutes, the number of the cells was counted with a hemocytometer (Becton, Dickinson and Company). Unstained cells were deemed as viable cells, and the cell viability was determined as a ratio of the number of unstained cells in trypan blue staining to the total number of cells. […]

[2] = tested on: human multiple myeloma cell line, RPMI8226; assay: Trypan blue cell viability and viable cell count, RPMI8226; type: cell-based; details: vardenafil 5 μM, EGCG 5 μM, 96 hours
Protocol: Enhancement of the activity of EGCG on multiple myeloma cells by vardenafil was investigated. A human multiple myeloma cell line, RPMI8226, was seeded in a 24-well plate at 5×10^4 cells/mL, and vardenafil was added thereto at a final concentration of 5 μM. After 3 hours, EGCG was added thereto at a final concentration of 5 μM. After 96 hours, cell viability (A) and the number (B) of viable cells were measured by trypan blue staining. The value of a control group of cells not treated with EGCG and vardenafil was defined as 100%. The results are shown in FIG. 8 (n=3, Tukey's test, *: P<0.05, ***: P<0.001).

(−)-epigallocatechin-3-O-gallate [EGCG]
cell viability (cell-killing activity) [1]: any cytotoxicity was not observed | cell viability (cell-killing activity) [2]: any cytotoxicity was not observed
